According to patent US8420659B2, “Compositions and methods for inhibition of the JAK pathway” (Rigel Pharmaceuticals, Inc., priority 2008, dated 2013):

What follows are compounds tested on Human primary T-cells (assay: Cell Titer-Glo, Human primary T Cell, IL2 (proliferation)). Conditions: IL-2 stimulated primary T-cell proliferation, 72 hours at 37° C., Cell Titer-Glo luminescence.
Assay type: cell-based
From the text: The activity of the compounds described herein can further be characterized by assaying the effect of the 2,4-pyrimidinediamine compounds described herein on the proliferative response of primary human T-cells. In this assay, primary human. T-cells derived from peripheral blood and pre-activated through stimulation of the T-cell receptor and CD28, proliferate in culture in response to the cytokine Interleukin-2 (IL-2). This proliferative response is dependent on the activation of JAK1 and JAK3 tyrosine kinases, which phosphorylate and activate the transcription factor Stat-5. The primary human T-cells are incubated with the 2,4-pyrimidinediamine compounds in the presence of IL-2 for 72 hours, and at the assay endpoint intracellular ATP concentrations are measured to assess cell viability. A reduction in cell proliferation compared to control conditions is indicative of inhibition of the JAK kinase pathway.
Cell Titer-Glo, Human primary T Cell, IL2
Materials and Reagents: Dimethyl Sulfoxide (DMSO) (Sigma-Aldrich, Cat# D2650) was used as a control. The following reagents were used: Ficoll Hypaque (Amersham Pharmacia, Cat#17-1440-03), Anti-Human CD3 (BD Pharmingen, Cat#555336), Anti-Human CD28 (Immunotech, Cat# IM1376), Yssel's Media (Gemini Bio-products, Cat#400-103), RPMI 1640 (Cellgro, Cat#10-040-CM), Fetal Bovine Serum (JRH, Cat#12106-500M), and […] (R& D Systems, Cat#202-IL).
Human primary T-cells were isolated and cultured according to the following procedure. Whole blood was obtained from a healthy volunteer, mixed 1:1 with PBS, layered on to Ficoll Hypaque in 2:1 blood/PBS:ficoll ratio and centrifuged for 30 min at 4° C. at 1750 rpm. The lymphocytes at the serum: ficoll interface were recovered and washed twice with 5 volumes of PBS. The cells were resuspended in Yssel's medium containing 40 U/mL IL-2 and seeded into a flask pre-coated with […] anti-CD3 and […] anti-CD28. The primary T-cells were stimulated for 3-4 days, then transferred to a fresh flask and maintained in RPMI with 10% FBS and 40 U/mL IL-2.
Primary T-cells were starved of IL-2 overnight and resuspended in Yssel's medium at 2×10^6 cells/mL. 50 μL of cell suspension containing 80 U/mL IL-2 was added to each well of a flat bottom 96 well black plate. For the unstimulated control, IL-2 was omitted from the last column on the plate. Compound was serially diluted in DMSO from 5 mM in 3-fold dilutions, and then diluted 1:250 in Yssel's medium. 50 μL of 2× compound was added per well in duplicate and the cells were allowed to proliferate for 72 hours at 37° C.
Proliferation was measured using Cell Titer-Glo. The substrate was thawed and allowed to come to room temperature. After mixing the Cell Titer-Glo reagent and diluent together, 100 μL was added to each well. The plates were mixed on an orbital shaker for two minutes to induce lysis and incubated at room temperature for an additional ten minutes to allow the signal to equilibrate. The Luminescence was read on the Wallac Plate Reader (Wallac Victor2 1420 Multilabel Counter).

Q: For NS(=O)(=O)c1ccc(Nc2ncc(Cl)c(Nc3ccc(CNS(=O)(=O)NC4CC4)cc3)n2)cc1 [Compound I-19, N2-(4-Aminosulfonylphenyl)-5-chloro-N4-[4-[(N-cyclopropylsulfamoylamino)methyl]phenyl]-2,4-pyrimidinediamine], which IC50 is on record?
A: Its IC50 is under 500 nM.

Q: For CCNS(=O)(=O)NCc1cccc(Nc2nc(Nc3cccc(S(N)(=O)=O)c3)ncc2C)c1 [Compound I-11, N2-(3-Aminosulfonylphenyl)-N4-[3-[(N-ethylsulfamoylamino)methyl]phenyl]-5-methyl-2,4-pyrimidinediamine], which IC50 is on record?
A: The IC50 was under 500 nM.

Q: For CCNS(=O)(=O)NCc1cccc(Nc2nc(Nc3cccc(S(N)(=O)=O)c3)ncc2F)c1 [Compound I-13, N2-(3-Aminosulfonylphenyl)-N4-[3-[(N-ethylsulfamoylamino)methyl]phenyl]-5-fluoro-2,4-pyrimidinediamine], which IC50 is on record?
A: The IC50 was under 500 nM.

Q: CCNS(=O)(=O)NCc1cccc(Nc2nc(Nc3cccc(S(N)(=O)=O)c3)ncc2Cl)c1 [Compound I-9, N2-(3-Aminosulfonylphenyl)-5-chloro-N4-[3-[(N-ethylsulfamoylamino)methyl]phenyl]-2,4-pyrimidinediamine] was tested. Which IC50 did it give?
A: Its IC50 is under 500 nM.

Q: For CCNS(=O)(=O)NCc1ccc(Nc2nc(Nc3cccc(S(N)(=O)=O)c3)ncc2Cl)c(C)c1 [Compound I-15, N2-(3-Aminosulfonylphenyl)-5-chloro-N4-[4-[(N-ethylsulfamoylamino)methyl]-2-methylphenyl]-2,4-pyrimidinediamine], which IC50 is on record?
A: Its IC50 is under 500 nM.

Q: With CCNS(=O)(=O)NCc1cccc(Nc2nc(Nc3ccc(S(N)(=O)=O)cc3)ncc2Cl)c1 [Compound I-10, N2-(4-Aminosulfonylphenyl)-5-chloro-N4-[3-[(N-ethylsulfamoylamino)methyl]phenyl]-2,4-pyrimidinediamine] as the compound, how does the IC50 read?
A: Its IC50 is under 500 nM.

Q: Which IC50 does the source give for CCNS(=O)(=O)NCc1cccc(Nc2nc(Nc3ccc(S(N)(=O)=O)cc3)ncc2C)c1 [Compound I-12, N2-(4-Aminosulfonylphenyl)-N4-[3-[(N-ethylsulfamoylamino)methyl]phenyl]-5-methyl-2,4-pyrimidinediamine] here?
A: The IC50 was under 500 nM.

Q: How did the IC50 turn out when CCNS(=O)(=O)NCc1ccc(Nc2nc(Nc3cccc(S(N)(=O)=O)c3)ncc2Cl)cc1 [Compound I-5, N2-(3-Aminosulfonylphenyl)-5-chloro-N4-[4-[(N-ethylsulfamoylamino)methyl]phenyl]-2,4-pyrimidinediamine] was run?
A: Its IC50 is under 500 nM.

Q: How did the IC50 turn out when CCNS(=O)(=O)NCc1ccc(Nc2nc(Nc3ccc(S(N)(=O)=O)cc3)ncc2C)cc1 [Compound I-8, N2-(4-Aminosulfonylphenyl)-N4-[4-[(N-ethylsulfamoylamino)methyl]phenyl]-5-methyl-2,4-pyrimidinediamine] was run?
A: The IC50 was under 500 nM.
